In EP2951180B1, “2,6,7,8 SUBSTITUTED PURINES AS HDM2 INHIBITORS” (Merck Sharp & Dohme Corp., priority 2013, dated 2014) one finds IC50 data, which are given here for 17 molecules.

The structures appear in SMILES notation.

T1 sequence (Q00987 17-125): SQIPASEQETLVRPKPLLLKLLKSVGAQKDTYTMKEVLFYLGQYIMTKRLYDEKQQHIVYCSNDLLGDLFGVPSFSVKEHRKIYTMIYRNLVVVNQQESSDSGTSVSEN

The first test has as its target T1, HDM2 (Homo sapiens, UniProt Q00987).
T1 construct: Thioredoxin (N); made in house; host or cells: E. coli strain BL21(DE3)Rosetta
The experiment in a line: HDM2 FRET assay (inhibition of binding of FITC labeled p53-pocket peptide to HDM2). Conditions: 0.5 nM HDM2 (residues 17 to 125), 3nM peptide, two hour incubation at room temperature; read-out: FRET IC50. Summed up:
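Compounds were tested in 10-point serial dilution against 0.5 nM recombinant HDM2 binding 3 nM fluorescein-labeled p53-pocket peptide. Detection used 0.25 nM terbium cryptate anti-6xHis antibody in PBS buffer containing 0.01% BSA and 0.01% Tween-20.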
As for `CC(C)c1ccnc(-c2nc3nc(-c4nnn[nH]4)nc(N[C@H](C)C4CCC4)c3n2Cc2ccc(C(F)(F)F)cc2)c1` [Example 12.1, N-[(1R)-1-cyclobutylethyl]-8-[4-(propan-2-yl)pyridin-2-yl]-2-(1H-tetrazol-5-yl)-7-[4-(trifluoromethyl)benzyl]-7H-purin-6-amine], the IC50 amounted to 8.35 nM.

The same test, now with this note: Table 11; read-out: FRET IC50.
In the case of `C[C@@H]1CN(C)C(=O)CN1c1nc2nc(-c3noc(=O)[nH]3)nc(N[C@H](C)C3CCC3)c2n1C[C@H]1CC[C@H](C)CC1` [Example 11.120, (5R)-4-[6-{[(1R)-1-cyclobutylethyl]amino}-7-[(trans-4-methylcyclohexyl)methyl]-2-(5-oxo-4,5-dihydro-1,2,4-oxadiazol-3-yl)-7H-purin-8-yl]-1,5-dimethylpiperazin-2-one], the IC50 worked out at 5.57 nM.
Still for that read-out and setting: with `CC1CSCCN1c1nc2nc(-c3noc(=O)[nH]3)nc(N[C@H](C)C3CCC3)c2n1C[C@H]1CC[C@H](C)CC1` (stereo partly drawn) [Example 11.123, 3-[6-{[(1R)-1-cyclobutylethyl]amino}-7-[(trans-4-methylcyclohexyl)methyl]-8-(3-methylthiomorpholin-4-yl)-7H-purin-2-yl]-1,2,4-oxadiazol-5(2H)-one] the figure was 4.39 nM; with `CC1CS(=O)(=O)CCN1c1nc2nc(-c3noc(=O)[nH]3)nc(N[C@H](C)C3CCC3)c2n1C[C@H]1CC[C@H](C)CC1` (stereo partly drawn) [Example 11.124, 3-[6-{[(1R)-1-cyclobutylethyl]amino}-7-[(trans-4-methylcyclohexyl)methyl]-8-(3-methyl-1,1-dioxidothiomorpholin-4-yl)-7H-purin-2-yl]-1,2,4-oxadiazol-5(2H)-one], 9.62 nM.
With `C[C@@H](Nc1nc(-c2noc(=O)[nH]2)nc2nc(N3CCOC4CC43)n(C[C@H]3CC[C@H](C)CC3)c12)C1CCC1` (stereo partly drawn) [Example 11.127, 3-[6-{[(1R)-1-cyclobutylethyl]amino}-7-[(trans-4-methylcyclohexyl)methyl]-8-(2-oxa-5-azabicyclo[4.1.0]hept-5-yl)-7H-purin-2-yl]-1,2,4-oxadiazol-5(4H)-one], the IC50 turned out to be 26.2 nM.
Same read-out and setting: next, `C[C@@H](Nc1nc(-c2noc(=O)[nH]2)nc2nc(N3CCC[C@H]3C(F)(F)F)n(C[C@H]3CC[C@H](C)CC3)c12)C1CCC1` [Example 11.128, 3-(6-{[(1R)-1-cyclobutylethyl]amino}-7-[(trans-4-methylcyclohexyl)methyl]-8-[(2S)-2-(trifluoromethyl)pyrrolidin-1-yl]-7H-purin-2-yl)-1,2,4-oxadiazol-5(4H)-one]: 0.642 nM; `C[C@@H]1COC[C@@H](C)N1c1nc2nc(-c3noc(=O)[nH]3)nc(N[C@H](C)C3CCC3)c2n1C[C@H]1CC[C@H](C)CC1` [Example 11.129, 3-(6-{[(1R)-1-cyclobutylethyl]amino}-8-[(3R,5R)-3,5-dimethylmorpholin-4-yl]-7-[(trans-4-methylcyclohexyl)methyl]-7H-purin-2-yl)-1,2,4-oxadiazol-5(4H)-one]: 0.788 nM; `C[C@@H](Nc1nc(-c2noc(=O)[nH]2)nc2nc(N3CCCC3c3ccccc3)n(C[C@H]3CC[C@H](C)CC3)c12)C1CCC1` (stereo partly drawn) [Example 11.130, 3-[6-{[(1R)-1-cyclobutylethyl]amino}-7-[(trans-4-methylcyclohexyl)methyl]-8-(2-phenylpyrrolidin-1-yl)-7H-purin-2-yl]-1,2,4-oxadiazol-5(4H)-one]: 2.05 nM.
Same read-out and setting: next, `C[C@@H](Nc1nc(-c2n[nH]c(=O)o2)nc2nc(N3CCC[C@H]3C(F)(F)F)n(C[C@H]3CC[C@H](C)CC3)c12)C1CCC1` [Example 11.137, 5-(6-{[(1R)-1-cyclobutylethyl]amino}-7-[(trans-4-methylcyclohexyl)methyl]-8-[(2S)-2-(trifluoromethyl)pyrrolidin-1-yl]-7H-purin-2-yl)-1,3,4-oxadiazol-2(3H)-one]: 0.881 nM.
The same measure, in the same setting: with `C[C@@H](Nc1nc(-c2noc(=O)[nH]2)nc2nc(N3CCOC[C@H]3c3ccccn3)n(C[C@H]3CC[C@H](C)CC3)c12)C1CCC1` [Example 11.142, 3-(6-{[(1R)-1-cyclobutylethyl]amino}-7-[(trans-4-methylcyclohexyl)methyl]-8-[(3R)-3-pyridin-2-ylmorpholin-4-yl]-7H-purin-2-yl)-1,2,4-oxadiazol-5(4H)-one] the figure was 0.774 nM.
`C[C@@H](Nc1nc(-c2noc(=O)[nH]2)nc2nc(N3CCOC[C@H]3c3ccncc3)n(C[C@H]3CC[C@H](C)CC3)c12)C1CCC1` [Example 11.145, 3-(6-{[(1R)-1-cyclobutylethyl]amino}-7-[(trans-4-methylcyclohexyl)methyl]-8-[(3R)-3-pyridin-4-ylmorpholin-4-yl]-7H-purin-2-yl)-1,2,4-oxadiazol-5(4H)-one]: the IC50 worked out at 1.31 nM.
Regarding `C[C@@H](Nc1nc(-c2noc(=O)[nH]2)nc2nc(N3CC4CC4C3C(F)(F)F)n(C[C@H]3CC[C@H](C)CC3)c12)C1CCC1` (stereo partly drawn) [Example 11.152, 3-(6-{[(1R)-1-cyclobutylethyl]amino}-7-[(trans-4-methylcyclohexyl)methyl]-8-[2-(trifluoromethyl)-3-azabicyclo[3.1.0]hex-3-yl]-7H-purin-2-yl)-1,2,4-oxadiazol-5(4H)-one], the IC50 stood at 3.09 nM.
For `C[C@@H](Nc1nc(-c2noc(=O)[nH]2)nc2nc(N3CCCC3CS(C)(=O)=O)n(C[C@H]3CC[C@H](C)CC3)c12)C1CCC1` (stereo partly drawn) [Example 11.153, 3-(6-{[(1R)-1-cyclobutylethyl]amino}-7-[(trans-4-methylcyclohexyl)methyl]-8-{2-[(methylsulfonyl)methyl]pyrrolidin-1-yl}-7H-purin-2-yl)-1,2,4-oxadiazol-5(4H)-one], the 50% inhibitory concentration (IC50) stood at 65.6 nM.
Consider `C[C@@H]1OCCN(c2nc3nc(-c4noc(=O)[nH]4)nc(N[C@H](C)C4CCC4)c3n2C[C@H]2CC[C@H](C)CC2)[C@@H]1c1ccccc1` [Example 11.163, 3-(6-{[(1R)-1-cyclobutylethyl]amino}-7-[(trans-4-methylcyclohexyl)methyl]-8-[(2S,3R)-2-methyl-3-phenylmorpholin-4-yl]-7H-purin-2-yl)-1,2,4-oxadiazol-5(4H)-one], for which the IC50 came to 21.2 nM.
As for `C[C@@H]1OCCN(c2nc3nc(-c4n[nH]c(=O)o4)nc(N[C@H](C)C4CCC4)c3n2C[C@H]2CC[C@H](C)CC2)[C@@H]1c1ccccc1` [Example 11.164, 5-(6-{[(1R)-1-cyclobutylethyl]amino}-7-[(trans-4-methylcyclohexyl)methyl]-8-[(2S,3R)-2-methyl-3-phenylmorpholin-4-yl]-7H-purin-2-yl)-1,3,4-oxadiazol-2(3H)-one], the half-inhibitory concentration (IC50) came out at 31 nM.
In the case of `C[C@@H](Nc1nc(-c2noc(=O)[nH]2)nc2nc(N3CCO[C@H](C)[C@H]3c3ccccc3)n(C[C@H]3CC[C@H](C)CC3)c12)C1CCC1` [Example 11.165, 3-(6-{[(1R)-1-cyclobutylethyl]amino}-7-[(trans-4-methylcyclohexyl)methyl]-8-[(2R,3R)-2-methyl-3-phenylmorpholin-4-yl]-7H-purin-2-yl)-1,2,4-oxadiazol-5(4H)-one], the IC50 worked out at 0.767 nM.
As for `C[C@@H](Nc1nc(-c2n[nH]c(=O)o2)nc2nc(N3CCO[C@H](C)[C@H]3c3ccccc3)n(C[C@H]3CC[C@H](C)CC3)c12)C1CCC1` [Example 11.166, 5-(6-{[(1R)-1-cyclobutylethyl]amino}-7-[(trans-4-methylcyclohexyl)methyl]-8-[(2R,3R)-2-methyl-3-phenylmorpholin-4-yl]-7H-purin-2-yl)-1,3,4-oxadiazol-2(3H)-one], the half-inhibitory concentration (IC50) came out at 0.79 nM.

For orientation: IC50 means the point on the concentration scale where inhibition reaches its midpoint.
